Target: T1, SthK-Cterm (Winmispira thermophila, UniProt E0RR11)
T1 construct: gene STHERM_c06300; C-linker/CNBD, residues 226-430 of full length; synthetic gene, His6-MBP fusion cut with thrombin; E. coli BL21(DE3); tetramer (SEC-MALLS); model residues 226-423
Experiment: X-ray crystal structure
Settings: antagonist; 5 mM cGMP added; bistrispropane pH 7.5, 20 °C; 2.55 Å; cyclic nucleotide-binding site

T1 sequence (E0RR11 entry or part of it): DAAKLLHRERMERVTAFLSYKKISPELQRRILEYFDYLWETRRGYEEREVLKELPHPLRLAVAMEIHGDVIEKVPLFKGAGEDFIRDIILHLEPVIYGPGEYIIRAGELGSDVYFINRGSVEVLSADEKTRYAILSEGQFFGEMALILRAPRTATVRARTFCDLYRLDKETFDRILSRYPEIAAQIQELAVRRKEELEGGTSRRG

**Q.** How did the X-ray crystal structure turn out when `Nc1nc2c(ncn2[C@@H]2O[C@@H]3COP(=O)(O)O[C@H]3[C@H]2O)c(=O)[nH]1` [cGMP] was run?
**A.** we observe that cGMP is able to bind in the cyclic nucleotide binding cavity from SthK

— publication PMC4308110 (PLoS ONE, 2015)
